Data published in US8475804B2 (priority 2009, dated 2013).
Where a name gives a salt, the structure may show the parent alone. Read-outs that look alike come from different tables or passages of the source.

Legend:
Ebola virus [1] = experiment: microbe, parasite or virus in culture; assay type: cell-based, Ebolavirus (EBOV)
Ebola virus [2] = experiment: microbe, parasite or virus in culture; assay type: cell-based, Ebolavirus (EBOV); set-up: Max Effect HepG2: unit not given here; conditions: for Emax: HepG2, read-out: Max Effect HepG2
[3] = Zaire ebolavirus, Vero, read-out: Max Effect
[4] = Zaire ebolavirus, Vero, read-out: Max Effect Vero
[5] = Zaire ebolavirus, Vero, read-out: IC50 (μM) Vero
[6] = Zaire ebolavirus, HepG2, read-out: IC50 (μM) HepG2

Compound | Max Effect (Ebola virus [1]) | Emax (Ebola virus [1]; [3]) [%] | Emax (Ebola virus [1]; [4]) [%] | Emax (Ebola virus [2]; Zaire ebolavirus) [%] | IC50 (Ebola virus [1]; Zaire ebolavirus, Vero) [µM] | IC50 (Ebola virus [1]; [5]) [µM] | IC50 (Ebola virus [2]; [6]) [µM] | also measured
Cl.Cl.OCCN1CCN(CCC=C2c3ccccc3Sc3ccc(C(F)(F)F)cc32)CC1 (mixture of isomers) [Flupentixol Dihydrochloride] | 0.660 | – | – | – | – | – | – | Max Effect Vero (Ebola virus [1]): 0.959; Max Effect HepG2 (Ebola virus [2]): 0.744
O=C1CCc2ccc(OCCCCN3CCN(c4cccc(Cl)c4Cl)CC3)cc2N1 [Aripiprazole] | – | 80.7 | 53 | 94.7 | – | – | – | –
COc1ccc(CCN2CCC(Nc3nc4ccccc4n3Cc3ccc(F)cc3)CC2)cc1 [Astemizole] | – | 83.5 | 96.5 | 91.4 | – | – | – | –
O=C1C(O)=C([C@H]2CC[C@H](c3ccc(Cl)cc3)CC2)C(=O)c2ccccc21 [Atovaquone] | – | 90 | 73.9 | 23.1 | < 1 | 0.44 | – | –
Nc1ncn([C@@H]2O[C@H](CO)[C@@H](O)[C@H]2O)c(=O)n1 [Azacitidine] | – | 59.5 | 74.6 | 89.9 | 5 | 8.9 | 10 | –
CN1[C@@H]2CC[C@H]1C[C@@H](OC(c1ccccc1)c1ccccc1)C2 [Benztropine Mesylate] | – | 63.3 | 89.9 | 94.3 | – | – | – | –
CC(C)COCC(CN(Cc1ccccc1)c1ccccc1)N1CCCC1 (stereo not drawn) [Bepridil Hydrochloride Monohydrate] | – | 72 | 97 | 91.2 | 3.1 | 5.1 | 3.2 | –
CCN(CC)CCOc1ccc(/C(=C(\Cl)c2ccccc2)c2ccccc2)cc1 [Clomiphene Citrate] | – | 91.2 | 96.4 | 93.4 | – | – | – | –
CN(C)CCCN1c2ccccc2CCc2ccc(Cl)cc21 [Clomipramine Hydrochloride] | – | 58.5 | 96.1 | 89.7 | – | – | – | –
Cc1nc(Nc2ncc(C(=O)Nc3c(C)cccc3Cl)s2)cc(N2CCN(CCO)CC2)n1 [Dasatinib] | – | 42.8 | 64.2 | 94.1 | – | 16 | 4.2 | –
O=C1Nc2ccc(Cl)cc2[C@@](C#CC2CC2)(C(F)(F)F)O1 [Efavirenz] | – | 51.6 | 63.9 | 86 | 7.8 | 10 | 14 | –
OCCN1CCN(CC/C=C2/c3ccccc3Sc3ccc(C(F)(F)F)cc32)CC1 [Flupentixol Dihydrochloride] | – | – | – | – | – | – | – | IC50 (Ebola virus [1]; read-out: IC50): 3.8 µM; IC50 (Ebola virus [1]; read-out: IC50 (μM) Vero): 5.7 µM; IC50 (Ebola virus [2]; read-out: IC50 (μM) HepG2): 1.6 µM
OCCN1CCN(CCCN2c3ccccc3Sc3ccc(C(F)(F)F)cc32)CC1 [Fluphenazine Hydrochloride] | – | 98.8 | 96.8 | 92 | – | – | – | –
CCN(CC)CCNc1ccc(CO)c2sc3ccccc3c(=O)c12 [Hycanthone] | – | 59.7 | 96.8 | 96.2 | 10.4 | 11 | 6 | –
CO[C@H]1C[C@H](O[C@H]2CC[C@]3(C=O)[C@H]4CC[C@]5(C)[C@@H](C6=CC(=O)OC6)CC[C@]5(O)[C@@H]4CC[C@]3(O)C2)O[C@H](C)[C@H]1O [K-Strophanthin] | – | 90 | 74.2 | 86.7 | < 0.5 | 0.035 | 0.021 | –
COc1ccc(CN2CCN(C(c3ccc(F)cc3)c3ccc(F)cc3)CC2)c(OC)c1OC [Lomerizine Dihydrochloride] | – | 66.5 | 89.9 | 91.8 | 10.1 | 11 | 2.1 | –
CNCCCC12CCC(c3ccccc31)c1ccccc12 [Maprotiline Hydrochloride] | – | 79.5 | 98.6 | 92.5 | – | – | – | –
COc1c(C)c2c(c(O)c1C/C=C(\C)CCC(=O)OCCN1CCOCC1)C(=O)OC2 [Mycophenolate Mofetil] | – | 90 | 43.8 | 88.6 | < 1 | – | 0.29 | –
Fc1ccc([C@@H]2CCNC[C@H]2COc2ccc3c(c2)OCO3)cc1 [Paroxetine Hydrochloride Hemihydrate] | – | 82 | 96 | 92 | 9.3 | 7.4 | 1.4 | –

Compound | Max Effect (Ebola virus [1]) | Emax (Ebola virus [1]; [3]) [%] | Emax (Ebola virus [1]; [4]) [%] | Emax (Ebola virus [2]; Zaire ebolavirus) [%] | IC50 (Ebola virus [1]; Zaire ebolavirus, Vero) [µM] | IC50 (Ebola virus [1]; [5]) [µM] | IC50 (Ebola virus [2]; [6]) [µM] | also measured
O=c1[nH]c2ccccc2n1C1CCN(CCCC(c2ccc(F)cc2)c2ccc(F)cc2)CC1 [Pimozide] | – | 68.5 | 96.8 | 91 | 4.8 | 3.1 | 1.7 | –
CC(=O)c1ccc2c(c1)N(CCCN1CCC(CCO)CC1)c1ccccc1S2 [Piperacetazine] | 0.641 | – | – | – | – | – | – | Max Effect Vero (Ebola virus [1]): 0.962; IC50 (Ebola virus [1]; read-out: IC50): 6.6 µM; IC50 (Ebola virus [1]; read-out: IC50 (μM) Vero): 12 µM; Max Effect HepG2 (Ebola virus [2]): 0.954; IC50 (Ebola virus [2]; read-out: IC50 (μM) HepG2): 3.3 µM
CN1CCN(CCCN2c3ccccc3Sc3ccc(Cl)cc32)CC1 [Prochlorperazine Edisylate] | – | 89 | 96.3 | 94.7 | – | – | – | –
CCN(CC)CCCC(C)Nc1c2ccc(Cl)cc2nc2ccc(OC)cc12 (stereo not drawn) [Quinacrine Dihydrochloride] | – | 77.9 | 92.3 | 86.2 | 9.5 | 5.7 | 1 | –
CN[C@H]1CC[C@@H](c2ccc(Cl)c(Cl)c2)c2ccccc21 [Sertraline Hydrochloride] | – | 41.8 | 96.2 | 95 | – | – | – | –
CCC(C)(C)C(=O)O[C@H]1C[C@@H](C)C=C2C=C[C@H](C)[C@H](CC[C@@H]3C[C@@H](O)CC(=O)O3)[C@H]21 [Simvastatin] | – | 69 | 55.7 | 35.3 | 2 | 20 | – | –
CN(C)CCOc1ccc(/C(=C(/CCCl)c2ccccc2)c2ccccc2)cc1 [Toremifene Citrate] | 0.900 | – | 93.5 | 94.9 | – | 0.16 | 0.026 | IC50 (Ebola virus [1]): > 1 µM
Antimycin A | 0.850 | – | – | – | – | – | – | IC50 (Ebola virus [1]; read-out: IC50): < 0.04 µM
Beta Escin | 0.878 | – | – | – | – | – | – | –
Bromelain | 0.769 | – | – | – | – | – | – | IC50 (Ebola virus [1]; read-out: IC50): 4 µM
Cetrimide | 0.692 | – | – | – | – | – | – | IC50 (Ebola virus [1]; read-out: IC50): 5.6 µM
Chondroitin Sulfate | 0.535 | – | – | – | – | – | – | IC50 (Ebola virus [1]; read-out: IC50): 11.4 µM
Gramicidin | 0.678 | – | – | – | – | – | – | –
Guanethidine Monosulfate | 0.793 | – | – | – | – | – | – | IC50 (Ebola virus [1]; read-out: IC50): 8.7 µM
Nonoxynol-9 | 0.535 | – | – | – | – | – | – | IC50 (Ebola virus [1]; read-out: IC50): 8.7 µM
Sodium Vanadate | – | – | – | – | – | – | – | IC50 (Ebola virus [1]; read-out: IC50): 13 µM
Tunicamycin | 0.800 | – | – | – | – | – | – | IC50 (Ebola virus [1]; read-out: IC50): < 0.28 µM
Vinorelbine Tartrate Hydrate | 0.472 | – | – | – | – | – | – | Max Effect Vero (Ebola virus [1]): 0.256; IC50 (Ebola virus [1]; read-out: IC50): 3.2 µM; Max Effect HepG2 (Ebola virus [2]): 0.788; IC50 (Ebola virus [2]; read-out: IC50 (μM) HepG2): 0.86 µM
